Laboratory results: patent publication US9206130B2, “Quinoline derivatives as AXL kinase inhibitors” (Max-Planck-Gesellschaft zur Förderung der Wissenschaften …, priority 2008, dated 2015)

Experiments:
[1] = biological target: T1, wild type AXL (wtAXL) receptor tyrosine kinase (Homo sapiens, UniProt P30530); test: NIH-3T3-AXL cellular tyrosine kinase assay (inhibition of AXL phosphorylation); assay type: cell-based; conditions: AXL phosphorylation in NIH-3T3-AXL (clone 22) cells, serum-depleted, 2 h with compound, immunoprecipitation / anti-phosphotyrosine blot
T1 construct: WtAXL cDNA was cloned into vector pLXSN(ESK) and transfected into Phoenix E packaging cells; expressed in transfected cells; host or cells: NIH3T3 N7 mouse fibroblasts, retrovirally infected (clone 22)
T1 sequence (P30530 26-894): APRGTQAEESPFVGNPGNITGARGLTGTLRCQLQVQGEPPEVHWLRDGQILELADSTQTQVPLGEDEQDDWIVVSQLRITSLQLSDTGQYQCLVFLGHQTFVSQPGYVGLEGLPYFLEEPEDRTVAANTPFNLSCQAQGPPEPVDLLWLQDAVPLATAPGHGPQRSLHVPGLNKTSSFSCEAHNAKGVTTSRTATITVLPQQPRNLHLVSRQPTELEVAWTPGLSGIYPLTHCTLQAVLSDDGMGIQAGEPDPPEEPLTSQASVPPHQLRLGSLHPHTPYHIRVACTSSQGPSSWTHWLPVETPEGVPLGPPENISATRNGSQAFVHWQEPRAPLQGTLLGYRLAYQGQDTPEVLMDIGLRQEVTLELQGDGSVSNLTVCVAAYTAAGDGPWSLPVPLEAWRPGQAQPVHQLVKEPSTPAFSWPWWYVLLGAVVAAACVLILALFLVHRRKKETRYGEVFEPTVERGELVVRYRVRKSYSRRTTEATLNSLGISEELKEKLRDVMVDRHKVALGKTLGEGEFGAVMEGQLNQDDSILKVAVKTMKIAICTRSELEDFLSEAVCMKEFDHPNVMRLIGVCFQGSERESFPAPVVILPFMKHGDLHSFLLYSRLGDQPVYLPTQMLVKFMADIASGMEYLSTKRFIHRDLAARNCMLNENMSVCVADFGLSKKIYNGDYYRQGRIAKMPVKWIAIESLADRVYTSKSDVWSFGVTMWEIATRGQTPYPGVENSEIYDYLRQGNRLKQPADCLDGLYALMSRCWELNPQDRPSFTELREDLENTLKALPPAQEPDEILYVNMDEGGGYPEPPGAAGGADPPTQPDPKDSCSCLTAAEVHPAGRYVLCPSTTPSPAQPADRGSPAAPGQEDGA
Procedure, shortened: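 Compound inhibition of AXL autophosphorylation was read by 4G10 immunoblot after anti-AXL immunoprecipitation from lysates. Cells: NIH3T3 lines stably carrying retroviral wild-type human AXL, treated 2 h with compound dilution series.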

**Q.** Which results are given for `Cc1cc(Oc2ccc(NS(=O)(=O)c3cccc(C(F)(F)F)c3)c(F)c2)c2cc(F)ccc2n1` [Example B8, N-[2-Fluoro-4-(6-fluoro-2-methyl-quinolin-4-yloxy)-phenyl]-3-trifluoromethyl-benzenesulfonamide]?
**A.** melting point: 150 to 152 °C; IC50 [1]: > 10 µM

**Q.** What does the source list for `Cc1cc(Oc2ccc(NS(=O)(=O)c3ccccc3)cc2)c2cc(F)ccc2n1` [Example B9, N-[4-(6-Fluoro-2-methyl-quinolin-4-yloxy)-phenyl]-benzenesulfonamide]?
**A.** melting point: 207 to 208 °C; IC50 [1]: > 10 µM

**Q.** For `Cc1cc(Oc2ccc(NS(=O)(=O)c3cc(Cl)cc(Cl)c3)cc2)c2cc(F)ccc2n1` [Example B10, 3,5-Dichloro-N-[4-(6-fluoro-2-methyl-quinolin-4-yloxy)-phenyl]-benzenesulfonamide], which melting point is on record?
**A.** 238 to 240 °C

**Q.** And the IC50 [1]?
**A.** > 10 µM

**Q.** Which melting point does the source give for `COc1c(Cl)cc(Cl)cc1S(=O)(=O)Nc1ccc(Oc2cc(C)nc3ccc(F)cc23)cc1` [Example B11, 3,5-Dichloro-N-[4-(6-fluoro-2-methyl-quinolin-4-yloxy)-phenyl]-2-methoxy-benzenesulfonamide] here?
**A.** 192 to 193 °C

**Q.** What about the IC50 [1] of the same molecule?
**A.** < 1 µM

**Q.** What does the source list for `Cc1cc(Oc2ccc(NS(=O)(=O)c3ccc(F)cc3F)cc2)c2cc(F)ccc2n1` [Example B12, 2,4-Difluoro-N-[4-(6-fluoro-2-methyl-quinolin-4-yloxy)-phenyl]-benzenesulfonamide]?
**A.** melting point: 179 to 180 °C; IC50 [1]: > 10 µM

**Q.** For `Cc1cc(Oc2ccc(NS(=O)(=O)c3cc(F)cc(F)c3)cc2)c2cc(F)ccc2n1` [Example B13, 3,5-Difluoro-N-[4-(6-fluoro-2-methyl-quinolin-4-yloxy)-phenyl]-benzenesulfonamid], which melting point is on record?
**A.** 194 to 195 °C

**Q.** What about the IC50 [1] of the same molecule?
**A.** < 1 µM

**Q.** Which results are given for `Cc1cc(Oc2ccc(NS(=O)(=O)c3cccc(Br)c3)cc2)c2cc(F)ccc2n1` [Example B14, 3-Bromo-N-[4-(6-fluoro-2-methyl-quinolin-4-yloxy)-phenyl]-benzenesulfonamide]?
**A.** melting point: 183 to 184 °C; IC50 [1]: < 1 µM

**Q.** Which results are given for `Cc1cc(Oc2ccc(NS(=O)(=O)c3ccc(Br)cc3C(F)(F)F)cc2)c2cc(F)ccc2n1` [Example B15, 4-Bromo-N-[4-(6-fluoro-2-methyl-quinolin-4-yloxy)-phenyl]-2-trifluoromethyl-benzenesulfonamide]?
**A.** melting point: 191 to 193 °C; IC50 [1]: > 10 µM

**Q.** For `Cc1cc(Oc2ccc(NS(=O)(=O)c3ccsc3)cc2)c2cc(F)ccc2n1` [Example B16, Thiophene-3-sulfonic acid [4-(6-fluoro-2-methyl-quinolin-4-yloxy)-phenyl]-amide], which melting point is on record?
**A.** 195 to 196 °C

**Q.** And the IC50 [1]?
**A.** > 10 µM

**Q.** Which results are given for `COC(=O)c1sccc1S(=O)(=O)Nc1ccc(Oc2cc(C)nc3ccc(F)cc23)cc1` [Example B17, 3-[4-(6-Fluoro-2-methyl-quinolin-4-yloxy)-phenylsulfamoyl]-thiophene-2-carboxylic acid methyl ester]?
**A.** melting point: 160 to 161 °C; IC50 [1]: > 10 µM

**Q.** Which melting point does the source give for `Cc1cc(Oc2ccc(NS(=O)(=O)c3ccc(Cl)s3)cc2)c2cc(F)ccc2n1` [Example B18, 5-Chloro-thiophene-2-sulfonic acid [4-(6-fluoro-2-methyl-quinolin-4-yloxy)-phenyl]-amide] here?
**A.** 170 to 172 °C

**Q.** What about the IC50 [1] of the same molecule?
**A.** > 10 µM

**Q.** For `Cc1cc(Oc2ccc(NS(=O)(=O)c3ccc(-c4cnco4)s3)cc2)c2cc(F)ccc2n1` [Example B19, 5-Oxazol-5-yl-thiophene-2-sulfonic acid [4-(6-fluoro-2-methyl-quinolin-4-yloxy)-phenyl]-amide], which melting point is on record?
**A.** 164 to 166 °C

**Q.** What about the IC50 [1] of the same molecule?
**A.** 8 µM

**Q.** For `Cc1cc(Oc2ccc(NS(=O)(=O)c3cccc4ccccc34)cc2)c2cc(F)ccc2n1` [Example B20, Naphthalene-1-sulfonic acid [4-(6-fluoro-2-methyl-quinolin-4-yloxy)-phenyl]-amide], which melting point is on record?
**A.** 223 to 225 °C

**Q.** And the IC50 [1]?
**A.** > 10 µM

**Q.** For `CCn1cc(S(=O)(=O)Nc2ccc(Oc3cc(C)nc4ccc(F)cc34)cc2)cn1` [Example B21, 1-Ethyl-1H-pyrazole-4-sulfonic acid [4-(6-fluoro-2-methyl-quinolin-4-yloxy)-phenyl]-amide], which melting point is on record?
**A.** 165 to 167 °C

**Q.** What about the IC50 [1] of the same molecule?
**A.** > 10 µM

**Q.** For `Cc1cc(Oc2ccc(NS(=O)(=O)c3cc(Cl)cc(Cl)c3O)cc2)c2cc(F)ccc2n1` [Example B22, 3,5-Dichloro-N-[4-(6-fluoro-2-methyl-quinolin-4-yloxy)-phenyl]-2-hydroxy-benzenesulfonamide], which melting point is on record?
**A.** 203 to 205 °C

**Q.** What about the IC50 [1] of the same molecule?
**A.** 7 µM

**Q.** For `Cc1cc(Oc2ccc(NS(=O)(=O)c3cc(Cl)cc(Cl)c3)c(F)c2)c2cccc(C(F)(F)F)c2n1` [Example C01, 3,5-Dichloro-N-[2-fluoro-4-(2-methyl-8-trifluoromethyl-quinolin-4-yloxy)-phenyl]-benzenesulfonamide], which melting point is on record?
**A.** 181 to 183 °C

**Q.** What about the IC50 [1] of the same molecule?
**A.** > 10 µM

**Q.** Which results are given for `Cc1cc(Oc2ccc(NS(=O)(=O)c3cccc(-c4ccccc4)c3)c(F)c2)c2cccc(C(F)(F)F)c2n1` [Example C02, Biphenyl-3-sulfonic acid [2-fluoro-4-(2-methyl-8-trifluoromethyl-quinolin-4-yloxy)-phenyl]-amide]?
**A.** melting point: 187 to 188 °C; IC50 [1]: > 10 µM

**Q.** Which results are given for `Cc1cc(Oc2ccc(NS(=O)(=O)c3cccc(Oc4ccccc4)c3)c(F)c2)c2cccc(C(F)(F)F)c2n1` [Example C03, N-[2-Fluoro-4-(2-methyl-8-trifluoromethyl-quinolin-4-yloxy)-phenyl]-3-phenoxy-benzenesulfonamide]?
**A.** melting point: 167 to 168 °C; IC50 [1]: > 10 µM

**Q.** What does the source list for `Cc1cc(Oc2ccc(NS(=O)(=O)c3cccc4ccccc34)c(F)c2)c2cccc(C(F)(F)F)c2n1` [Example C04, Naphthalene-1-sulfonic acid [2-fluoro-4-(2-methyl-8-trifluoromethyl-quinolin-4-yloxy)-phenyl]-amide]?
**A.** melting point: 232 to 234 °C; IC50 [1]: > 10 µM

**Q.** For `Cc1cc(Oc2ccc(NS(=O)(=O)c3cc(Cl)ccc3Cl)c(F)c2)c2cccc(C(F)(F)F)c2n1` [Example C05, 2,5-Dichloro-N-[2-fluoro-4-(2-methyl-8-trifluoromethyl-quinolin-4-yloxy)-phenyl]-benzenesulfonamid], which melting point is on record?
**A.** 207 to 209 °C

**Q.** What about the IC50 [1] of the same molecule?
**A.** > 10 µM

**Q.** Which results are given for `Cc1cc(Oc2ccc(NS(=O)(=O)c3c(Cl)cccc3Cl)c(F)c2)c2cccc(C(F)(F)F)c2n1` [Example C06, 2,6-Dichloro-N-[2-fluoro-4-(2-methyl-8-trifluoromethyl-quinolin-4-yloxy)-phenyl]-benzenesulfonamide]?
**A.** melting point: 171 to 173 °C; IC50 [1]: > 10 µM

**Q.** Which melting point does the source give for `Cc1cc(Oc2ccc(NS(=O)(=O)c3ccccc3C(F)(F)F)c(F)c2)c2cccc(C(F)(F)F)c2n1` [Example C07, N-[2-Fluoro-4-(2-methyl-8-trifluoromethyl-quinolin-4-yloxy)-phenyl]-2-trifluoromethyl-benzenesulfonamid] here?
**A.** 183 to 185 °C

**Q.** And the IC50 [1]?
**A.** > 10 µM

**Q.** Which melting point does the source give for `COc1ccc(S(=O)(=O)Nc2ccc(Oc3cc(C)nc4c(C(F)(F)F)cccc34)c(F)c2)c2ccccc12` [Example C08, 4-Methoxy-naphthalene-1-sulfonic acid [3-fluoro-4-(2-methyl-8-trifluoromethyl-quinolin-4-yloxy)-phenyl]-amide] here?
**A.** 242 to 244 °C

**Q.** And the IC50 [1]?
**A.** > 10 µM

**Q.** With `COc1ccc(S(=O)(=O)Nc2ccc(Oc3cc(C)nc4c(C(F)(F)F)cccc34)c(F)c2)cc1F` [Example C09, 3-Fluoro-N-[3-fluoro-4-(2-methyl-8-trifluoromethyl-quinolin-4-yloxy)-phenyl]-4-methoxy-benzenesulfonamide] as the molecule, how does the melting point read?
**A.** 128 to 130 °C

**Q.** What about the IC50 [1] of the same molecule?
**A.** > 10 µM

**Q.** What does the source list for `COc1cc(C)c(C)cc1S(=O)(=O)Nc1ccc(Oc2cc(C)nc3c(C(F)(F)F)cccc23)c(F)c1` [Example C10, N-[3-Fluoro-4-(2-methyl-8-trifluoromethyl-quinolin-4-yloxy)-phenyl]-2-methoxy-4,5-dimethyl-benzenesulfonamide]?
**A.** melting point: 230 to 232 °C; IC50 [1]: > 10 µM

**Q.** For `Cc1cc(Oc2ccc(NS(=O)(=O)c3cc(F)ccc3F)c(F)c2)c2cccc(C(F)(F)F)c2n1` [Example C11, 2,5-Difluoro-N-[2-fluoro-4-(2-methyl-8-trifluoromethyl-quinolin-4-yloxy)-phenyl]-benzenesulfonamide], which melting point is on record?
**A.** 179 to 181 °C

**Q.** What about the IC50 [1] of the same molecule?
**A.** > 10 µM

**Q.** For `Cc1cc(Oc2ccc(NS(=O)(=O)c3ccc(F)c(Cl)c3)c(F)c2)c2cccc(C(F)(F)F)c2n1` [Example C12, 3-Chloro-4-fluoro-N-[2-fluoro-4-(2-methyl-8-trifluoromethyl-quinolin-4-yloxy)-phenyl]-benzenesulfonamide], which melting point is on record?
**A.** 202 to 203 °C

**Q.** And the IC50 [1]?
**A.** > 10 µM
